Experimental findings from patent publication US20250049871A1, “PHARMACEUTICAL COMBINATION FOR TREATING OR PREVENTING EPILEPSY AND THE USE THEREOF” (priority 2023, published 2025) are described below.

Common to all, as to type: in vivo, Sprague-Dawley rats
Experiment [1] deals with cerebral cortex and hippocampus CA1/CA3 nerve cells. In words: Nissl staining of brain tissue after KA injection. To be noted: pretreatment; three days after KA 15 mg/kg i.p.; p<0.05 vs KA group. As for the experimental part:
(§1) Continuing from Example 3, the experimental animals in each group were sacrificed three days after intraperitoneal injection of KA (15 mg/kg), and the brain tissues were taken out for sectioning and other relevant experimental analysis.

For experiment [2], the system named is CA1/CA3 degenerative cells in the cerebral cortex and hippocampus. Description: Fluoro-Jade B (FJB) staining of brain tissue after KA injection. To be noted: pretreatment; three days after KA 15 mg/kg i.p.; p<0.05 vs KA group. As for the experimental part: as §1
This phenomenon can also be reduced by the pretreatment with the birch sap extract and betulin (p<0.05; FIGS. 4A and 4B).

The next experiment has as its system KA-induced seizures. Description: kainic acid (KA)-induced epilepsy model in animals, epileptic behavior by Racine scale. To be noted: for Death: dead/total rats; for Seizure %: share of rats with seizures; for Seizure stage: then KA 15 mg/kg i.p., Racine scale within 4 hours. As for the experimental part: Male Sprague-Dawley rats (SD rat, 150-200 g) were purchased from BioLASCO (Taiwan) and bred in Fu Jen Laboratory Animal Center. All animal experiments were approved by the IACUC of Fu Jen Catholic University. According to the 3R principles, all experiments were performed to minimize animal suffering and use the minimum number of animals necessary to produce reliable results.
The antiepileptic effect of the birch sap extract was evaluated using kainic acid (KA)-induced epilepsy model in animals. KA is an analogue of glutamate, and injection of KA into rats will increase the release of glutamate and overactivate glutamate receptors, resulting in progressive limbic seizures in rats. This phenomenon leads to increased calcium ions in nerve cells, oxidative stress, and loss of mitochondrial function, resulting in the death of nerve cells in many areas of the brain, especially in the cerebral cortex and hippocampus. In addition, KA-induced neuronal cell death is related to glial cell activation and inflammatory response caused by inflammatory molecules, such as interleukin-1β (IL-1β), interleukin-6 (IL-6), tumor necrosis factor-α (TNF-α), high mobility group Box 1 (HMGB1), interleukin 1 receptor 1 (IL-1R1), and Toll-like receptor-4 (TLR-4).
Epileptic behavioral expressions were analyzed within 4 hours after intraperitoneal injection of KA in rats.
Sprague-Dawley rats were divided into the following groups according to the administration of different test substances: • 1. Negative control group: normal saline • 2. KA group: 15 mg/kg/i.p./single dose of kainic acid (KA) • 3. Low-dose group of birch sap extract: 6 mg/kg of birch sap extract • 4. High-dose group of birch sap extract: 10 mg/kg of birch sap extract • 5. High-dose group of antiepileptic drug: 100 mg/kg of carbamazepine (CBZ) • 6. Antiepileptic pharmaceutical combination group: 6 mg/kg of birch sap extract and 50 mg/kg of CBZ • 7. Low-dose group of antiepileptic drug: 50 mg/kg of CBZ
The control group, birch sap extract groups, antiepileptic drug groups, and antiepileptic pharmaceutical combination group were fed with normal saline, birch sap extract and/or CBZ through feeding tubes at regular intervals every day. One week later, except for the negative control group, rats in each group were intraperitoneally injected with KA (15 mg/kg/i.p./single dose), and the dose of KA injection was based on the previous study. The epileptic behavior of rats was analyzed according to Racine scale (1972) within 4 hours after intraperitoneal injection of KA.

Consider `C=C(C)[C@@H]1CC[C@]2(CO)CC[C@]3(C)[C@H](CC[C@@H]4[C@@]5(C)CC[C@H](O)C(C)(C)[C@@H]5CC[C@]43C)[C@@H]12` [betulin], for which, in experiment [1], the “number of neurocytes in cerebral cortex and hippocampus CA1/CA3 (Nissl staining)” value is listed as “reduce the decrease in the number of neurocytes”. Besides, the “number of CA1/CA3 degenerative cells in the cerebral cortex and hippocampus (FJB staining)” value in experiment [2] is reported as “reduced”.
In the case of `NC(=O)N1c2ccccc2C=Cc2ccccc21` [CBZ, carbamazepine], the Death with KA-induced seizures (CBZ 50 mg/kg + KA) is reported as 0/3; in the experiment on KA-induced seizures (CBZ 100 mg/kg + KA) it was 1/11. The “Latency to first seizure” value in the experiment on KA-induced seizures (CBZ 50 mg/kg + KA, mean ± SEM) is given as 89 ± 17 min; in the experiment with KA-induced seizures (CBZ 100 mg/kg + KA), 140 min. Besides, the Seizure % with KA-induced seizures (CBZ 50 mg/kg + KA) was determined as 66%; with KA-induced seizures (CBZ 100 mg/kg + KA), 10%. Also, the Seizure stage amounted to 3.6 ± 0.3 in the experiment on KA-induced seizures (CBZ 50 mg/kg oral daily for one week, mean ± SEM) and 0.9 ± 0.5 in the experiment with KA-induced seizures (CBZ 100 mg/kg oral daily for one week, mean ± SEM). The “time and severity of seizures compared with the KA group” value in the experiment on KA-induced seizures (low-dose group of antiepileptic drug, CBZ 50 mg/kg) is given as “not statistically different”.
